Results as given in article PMC11904948, “Peptide‐Drug Conjugate for Therapeutic Reprogramming of Tumor‐Associated Macrophages in Breast Cancer” (Advanced Science, 2025).
Peptide text beside a SMILES is read from it. * marks the point of attachment. 5FAM = O=C1OC2(c3ccc(O)cc3Oc3cc(O)ccc32)c2ccc(C(=O)*)cc21; Ahx = NCCCCCC(=O)O

Legend:
CD206 = settings: cited from earlier work
From the text: Targeting CD206 is also promising for diagnostic purposes, as an increased number of CD206^+ cells in lymph nodes correlates with relapse onset in some cancers.^[ [6] ^] Most synthetic compounds designed to target CD206 utilize mannose as the recognition moiety.

[1] = parameters: method as in PMID 36632235; settings: cited from earlier work
[2] = parameters: method as in PMID 39575977; settings: cited from earlier work
[3] = general statement, no reference given; cited from earlier work
From the text: Verteporfin (V), is a photosensitizer and inhibitor of the activation of YAP.^[ [41] ^] […] Verteporfin, in its liposomal formulation Visudyne, is an approved drug for certain ophthalmological indications. In clinical trials for cancer therapy, Verteporfin is mostly used for photodynamic therapy (clinical trial identifiers: NCT03067051, NCT03033225, NCT04590664).

[4] = Peptide stability in 4T1 tumor lysate (LC-MS); format: in vitro ADME; settings: lysate of 4T1 orthotopic TNBC tumors (mouse), 30 µM peptide, 37 °C, aliquots 0, 10, 30, 60, 180, 1440 min
Procedure: Figure 3 MACTIDE has higher affinity and proteolytic stability than mUNO. A) QCM experiment of MACTIDE, mUNO, and control peptides at a final concentration of 10 µM in PBS on multilayers of PAH/CD206 or control multilayers of PAH/BSA. The black arrow indicates when the peptides were added, blue and red arrows indicate when the washing step with PBS started. B) Integrity of FAM‐MACTIDE and FAM‐mUNO measured by LC‐MS at different time points after incubation of peptides with lysate derived from a 4T1 tumor.
We next evaluated the stability of fluorescein (FAM)‐MACTIDE against proteases from breast tumors. To this end, we incubated both FAM‐MACTIDE and FAM‐mUNO with a tumor lysate obtained from 4T1 orthotopic TNBC tumors using different timepoints and evaluated the integrity of the peptide using liquid chromatography‐mass spectrometry (LC‐MS). We observed that the half‐life of FAM‐MACTIDE in this tumor lysate increased 5‐fold with respect to FAM‐mUNO (Figure 3B).
For peptide stability measurements, 200 µL of freshly prepared tumor lysate was mixed with 50 µL of PBS (as control), 30 µM of FAM‐mUNO, or 30 µM of FAM‐MACTIDE and incubated at 37 °C. 40 µL aliquots were taken at 0, 10, 30, 60, 180 and 1440 min. 80 µL of methanol was added to each aliquot and it was immediately stored at −80 °C until analysis later on the same or the following day. […]

[5] = Blood half-life by plasma fluorescence; format: in vivo, mice; settings: i.v. and i.p., 30 nmoles, plasma fluorescence in FAM channel, n = 3; compared with FAM-mUNO values of ref 5
From the text: We subsequently determined the blood half‐life of FAM‐MACTIDE using i.v. and i.p. administration (Figure S1, Supporting Information). […] Importantly, we observed low liver accumulation with these administration routes for both peptides (Figure S2, Supporting Information).
Figure S1.: Pharmacokinetics of i.p. and i.v. administered FAM-MACTIDE (30 nmoles) analyzed by detecting plasma fluorescence in the FAM channel at different timepoints (n=3).

CD206^+ TAM = test: In vivo homing to CD206+ TAM in orthotopic 4T1 tumor-bearing mice; parameters: species or system Balb/c mice; settings: 30 nmol, 24 h circulation
Procedure: (§1) We subsequently determined the blood half‐life of FAM‐MACTIDE using i.v. and i.p. administration (Figure S1, Supporting Information).
Thirty nmol of FAM‐MACTIDE or FAM‐mUNO were administered i.v. (A), i.p. (B), or orally (C) and left to circulate for 24 h. After 24 h, mice were sacrificed, and the organs were collected, fixed, cryoprotected, sectioned, and immunostained for FAM (shown in green) and CD206 (shown in red). The CD206/FAM colocalization indices were calculated from representative images from n = 3 tumors, using Fiji (Mandler's tM2 index) and the signal intensity per CD206^+ TAM (i.p. administration) was quantified using ImageJ (B). Scale bars = 100 µm. ^* p ≤ 0.05, ^** p ≤ 0.01 (Anova one‐way fisher LSD).
(§2) When tumors reached ≈100 mm^3, 30 nmol of FAM‐MACTIDE or FAM‐mUNO was injected i.p., i.v. or through oral gavage and circulated for 24 h. […] Blocks were cryosectioned at 10 µm thickness on Superfrost+ slides (ThermoFisher Scientific, catalog no. J1800AMNZ) and stored at −20 °C or used instantly. Immunofluorescence staining was performed as described previously.^[ [5] ^] […] Slides were counterstained using 4,6‐diamidino‐2‐phenylindole (DAPI, 5 µg mL^−1 in PBS, Sigma–Aldrich, catalog no. D9542‐5MG). […] The colocalization analysis was performed using the “Coloc2” plugin in the Fiji program using Mandler's tM2 index. Values were obtained from at least three individual images per mouse per group and their average values were plotted. The FAM mean signal per CD206^+ cell analysis was measured using Fiji, taking the mean FAM signal, and dividing it by the number of CD206^+ cells. Average values were obtained from four images per mouse for n = 3 mice.

[6] = Liver accumulation in the biodistribution study; format: in vivo, Balb/c mice; settings: i.v., i.p. and oral, 30 nmol, 24 h circulation, immunostaining, n = 3 mice
Procedure: as §1, §2

OC[C@H]1OC(O)[C@@H](O)[C@@H](O)[C@@H]1O (stereo partly drawn) [mannose]
affinity of mannose (CD206 recognition moiety) (CD206): millimolar range

Verteporfin
cardiotoxicity in vivo [1]: cardiotoxicity | cell specificity of free Verteporfin [2]: not cell‐specific | solubility in water [3]: insoluble in water

FAM‐Ahx‐G(CTKSIPPIC)SPGAK‐OH (disulfide) [FAM‐MACTIDE, carboxyfluorescein-labelled MACTIDE]
half‐life in tumor lysate, fold increase with respect to FAM‐mUNO [4]: 5 fold | blood half‐life [5]: equal to those obtained previously for FAM‐mUNO | CD206/FAM colocalization (CD206^+ TAM; i.p., 4T1 tumors, Fiji tM2 index, n = 3 tumors): 80% | FAM intensity per CD206^+ TAM, fold higher than FAM‐mUNO (CD206^+ TAM; i.p., 4T1 tumors, ImageJ, n = 3 mice): 10 fold | CD206^+ TAM targeting, intravenous (CD206^+ TAM; i.v., immunostaining of 4T1 tumor sections for FAM and CD206): showed CD206^+ TAM targeting | CD206^+ TAM targeting, oral (CD206^+ TAM; oral gavage, immunostaining of 4T1 tumor sections): targeted CD206^+ TAM | liver accumulation [6]: does not accumulate in the liver

C[C@H](NC(=O)CNC(=O)[C@@H]1CCCN1C(=O)[C@H](CO)NC(=O)[C@H](CS)NC(=O)CCCCCNC(=O)c1ccc2c(c1)C(=O)OC21c2ccc(O)cc2Oc2cc(O)ccc21)C(=O)N[C@@H](CCCCN)C(=O)O [FAM‐mUNO, reference compound] ({5FAM-Ahx}-CSPGAK-OH)
liver accumulation [6]: does not accumulate in the liver
